# “Also recorded” adds a separate entry of the source.
# Key:
# [1] = test system: methionine cycle metabolites in TS cells; experiment: LC/MS abundance of methionine cycle metabolites 48 h after inhibitor treatment; assay type: cell-based, human; conditions: 48 h FIDAS5 (10 μM), normalized to DMSO
# Method: Cis-platinum (cis-Diammineplatinum(II) dichloride) and MG132 (10 μM final concentration) was purchased from Sigma, FIDAS-5 (final concentration of 10 μM in culture medium) from Merck Millipore and D9 (final concentration of 500 nM in culture medium).
# For suspension cell culture, 10 million cells per sample were obtained and quenched with 4 volumes of ice-cold 150 mM sodium chloride solution. The cell pellets were collected by centrifugation of the quenched samples at 3000 g for 5 min at 4° C. and the supernatant was aspirated and discarded. For adherent cell culture, the media was gently aspirated and the cells on the surfaces of the well plates were gently washed with ice-cold 150 mM sodium chloride solution thrice. Ice-cold sodium chloride was added to the plate and a cell scraper was used to release adherent cells from the plate surface. The cell pellets were collected as described earlier and kept on ice. […]
# For targeted LC/MS analysis, the chromatographic peak integration was performed using Targetlynx software (Waters Corp). In addition, for the ^13C-labeled methionine pulse-chase experiments, the atomic percent excess (APE) for each species was calculated and natural abundance corrected from an isotopomer matrix accounting for the presence of natural abundance carbons distributed throughout each possible parent/daughter ion combination (Table 3). […]
# [2] = test system: histone methylation in Adh cells; experiment: Western blot of methylated histones in Adh cells; assay type: cell-based, human; conditions: FIDAS5 treatment
# Method: 1.5×10^6 cells were lysed in Llaemli-SDS buffer and then sonicated. Total protein concentration was measured by Bradford assay. Total cell lysates were separated by SDS-PAGE and transferred onto nitrocellulose, followed by blocking in 5% (v/v) milk in Tris-buffered saline in Tween 20, probing with the indicated antibodies and visualized by chemiluminescence (Roche). Primary antibodies used were anti-β-Actin (sc-47778), anti-GAPDH (sc-32233) from Santa Cruz: anti-GLDC (ab97625), anti-H3 (ab1791), anti-H3 (dimethylK36) (ab9049), anti-MAT2A (ab77471), anti-MTR (ab9209), anti-H3 (trimethylK79) (ab2621), anti-MTHFR (ab125707), anti-MTAP (ab ab55517) from Abcam; anti-H3(trimethyl K4) (39159), anti-H3(trimethyl K27)(39155), anti-H3(trimethylK36)(61101) and anti-H3(trimethylK9)(39765) from Active Motif; anti-β-catenin (BD610154) from BD Biosciences; anti-SHMT2 (HPA020549) and anti-SAHH (WH0000191M8) from Sigma; anti-Symmetric Di-Methyl Arginine Motif (13222) from CST.
# [3] = test system: CD166 expression in TS cells; experiment: CD166 staining of TS cells by flow cytometry; assay type: cell-based, human; conditions: FIDAS vs DMSO
# [4] = test system: non-neoplastic cell lines; experiment: Proliferation of non-neoplastic (untransformed) cell lines in FIDAS5-containing media; assay type: cell-based
# Method: Cells were seeded into 96-well plates at a density of 2,000 cells/well for TS cells and 500 cells/well for Adh cells. The relative number of viable cells was determined by the quantification of ATP using the CellTiter-Glo Luminescent Cell Viability Assay (Promega) system.
# [5] = test system: triple-negative breast cancer (TNBC) cells incl. BC2.2; experiment: Sensitivity of triple-negative breast cancer cells to MAT2A inhibition; assay type: cell-based; conditions: in particular chemotherapy resistant BC2.2
smiles,measurement,setting,value
CNc1ccc(/C=C/c2c(F)cccc2Cl)cc1 [FIDAS5],reduction of intracellular levels of SAH,[1],~10 fold
same,reduction of intracellular levels of SAM,[1],~10 fold
same,histone methylation marks,[2],did not demonstrate reduction in histone methylation marks
same,CD166 expression,[3],loss of CD166 expression
same,proliferation in FIDAS5-containing media,[4],far less affected
same,effect on TNBC cells,[5],displayed sensitivity; also recorded: effective

# Source: patent US11872230B2, “Method of treating a methionine-dependent cancer” (Agency for Science, Technology and Research, priority 2018, dated 2024)
